Values after ≈ are worked out from the molar mass of the structure shown. Like-named read-outs stand apart in the source and are kept apart here. Bounds are passed on as bounds.

The test system of data set [1] is poliovirus (PV type 2). Nature of the data set: microbe, parasite or virus in culture. The following applies: Enterovirus C, read-out: PV-2 EC50. Format: cell-based.
The test system of data set [2] is poliovirus (PV type 3). Nature of the data set: microbe, parasite or virus in culture. Format: cell-based. The following applies: Enterovirus C, read-out: PV-3 EC50.
The nature of data set [3]: in vitro. The conditions noted are these: human, PV CC50.
Data set [4] relates to poliovirus (PV type 1). Nature of the data set: microbe, parasite or virus in culture. The format is cell-based. The following applies: Enterovirus C, read-out: PV-1 EC50.
A short description of data set [5]: in vitro. The following applies: African green monkey, PV CC50.
The subject of data set [6] is genotype 1a H-77 replicon. Nature of the data set: HCV-1a replicon potency in RLuc-1 cells, bioluminescence. The format is cell-based. The conditions noted are these: for HCV-1a Replicon Selectivity Index: CC50/EC50, genotype 1a replicon; for EC50: Hepatitis C virus, 72 h, read-out: HCV-1a Replicon EC50 (μM).
The nature of data set [7]: Cytotoxicity in HCV-1a replicon cells, Promega CellTiter-Glo cell viability assay. Background: In antiviral work, replicon cells carry a viral genome segment that copies itself.

For the compound `C[C@@]1(O)[C@H](O)[C@@H](CO)O[C@H]1n1ccc(N)nc1=O` [2′-C-methylcytidine], the EC50 (commonly the concentration giving half of the maximal effect) worked out at 7.27 mg/L (≈ 28.3 µM) in data set [1] (HeLa); 4.6 mg/L (≈ 17.9 µM) in data set [1] (Vero); 11.4 mg/L (≈ 44.4 µM) in data set [2] (HeLa); 15.3 mg/L (≈ 59.6 µM) in data set [2] (Vero); 3.74 mg/L (≈ 14.5 µM) in data set [4] (HeLa); 3.58 mg/L (≈ 13.9 µM) in data set [4] (Vero). In addition, the values for the CC50 in data set [3] and in data set [5] were above 50 mg/L and above 150 mg/L, respectively.

For `CC(C)S(=O)(=O)n1c(N)nc2ccc(/C(=N/O)c3ccccc3)cc21` [Enviroxime], the 50% effective concentration (EC50) is 0.041 mg/L (≈ 0.114 µM) in data set [1] (HeLa); 0.04 mg/L (≈ 0.112 µM) in data set [1] (Vero); 0.12 mg/L (≈ 0.335 µM) in data set [2] (HeLa); 1.03 mg/L (≈ 2.87 µM) in data set [2] (Vero); 0.13 mg/L (≈ 0.363 µM) in data set [4] (HeLa); 0.11 mg/L (≈ 0.307 µM) in data set [4] (Vero). In addition, the results for the CC50 in data set [3] and in data set [5] were 21.2 mg/L (≈ 59.3 µM) and above 150 mg/L, respectively.

As to `Nc1nc(N2CCN(C(=O)COc3ccc(Cl)cc3)CC2)c2nc(C3CC3)oc2n1` [Example 185, 5-amino-2-cyclopropyl-7-[4-(4-chlorophenoxyacetyl)piperazin-1-yl]-oxazolo[5,4-d]pyrimidine], the 50% effective concentration (EC50) in data set [1] (HeLa) is at least 50 mg/L; in data set [1] (Vero) it was 5.48 mg/L (≈ 12.8 µM); in data set [2] (HeLa), above 50 mg/L; in data set [2] (Vero), above 50 mg/L; in data set [4] (HeLa), 0.4 mg/L (≈ 0.933 µM); in data set [4] (Vero), 2.17 mg/L (≈ 5.06 µM). The CC50 in data set [3] was above 50 mg/L; in data set [5] it was 97.7 mg/L (≈ 228 µM).

Consider `CCCCCc1nc2c(N3CCN(C(=O)COc4ccc(Cl)cc4)CC3)nc(N)nc2o1` [Example 188, 5-amino-7-[4-(4-chlorophenoxyacetyl)piperazin-1-yl]-2-pentyloxazolo[5,4-d]pyrimidine], for which the 50% effective concentration (EC50) in data set [1] (HeLa) came to 0.36 mg/L (≈ 0.784 µM); in data set [1] (Vero), 0.11 mg/L (≈ 0.24 µM); in data set [2] (HeLa) it was 0.48 mg/L (≈ 1.05 µM); in data set [2] (Vero) it was 0.32 mg/L (≈ 0.697 µM); in data set [4] (HeLa), 0.38 mg/L (≈ 0.828 µM); in data set [4] (Vero), 0.14 mg/L (≈ 0.305 µM). For the same compound, the values for the CC50 in data set [3] and in data set [5] were above 50 mg/L and 103 mg/L (≈ 225 µM), respectively.

As for `CC(C)CN1CCN(c2nc(N)nc3oc(-c4ccc(F)cc4)nc23)CC1` [Example 190, 5-amino-2-(4-fluorophenyl)-7-(4-isobutylpiperazin-1-yl)-oxazolo[5,4-d]pyrimidine], the EC50 is 1.17 mg/L (≈ 3.16 µM) in data set [1] (HeLa); 1.02 mg/L (≈ 2.75 µM) in data set [1] (Vero); 1.13 mg/L (≈ 3.05 µM) in data set [2] (HeLa); 2.79 mg/L (≈ 7.53 µM) in data set [2] (Vero); 1.15 mg/L (≈ 3.1 µM) in data set [4] (HeLa); 1.08 mg/L (≈ 2.92 µM) in data set [4] (Vero). Moreover, the CC50 in data set [3] was 32.3 mg/L (≈ 87.2 µM); in data set [5], 130 mg/L (≈ 352 µM).

Consider `CC(=O)N1CCN(c2nc(N)nc3oc(-c4ccc(F)cc4)nc23)CC1` [Example 191, 5-amino-2-(4-fluorophenyl)-7-(4-acetylpiperazin-1-yl)-oxazolo[5,4-d]pyrimidine], for which the EC50 in data set [1] (HeLa) was at least 50 mg/L; in data set [1] (Vero) it was 21.6 mg/L (≈ 60.6 µM); in data set [2] (HeLa) it was above 50 mg/L; in data set [2] (Vero), above 50 mg/L; in data set [4] (HeLa), 28.6 mg/L (≈ 80.3 µM); in data set [4] (Vero), 27.5 mg/L (≈ 77.1 µM). In addition, the CC50 was above 50 mg/L in data set [3] and 112 mg/L (≈ 313 µM) in data set [5].

In the case of `COCCN1CCN(c2nc(N)nc3oc(-c4ccc(F)cc4)nc23)CC1` [Example 192, 5-amino-2-(4-fluorophenyl)-7-[4-(2-methoxyethyl)-piperazin-1-yl]-oxazolo[5,4-d]pyrimidine], the EC50 is above 50 mg/L in data set [1] (HeLa); at least 50 mg/L in data set [1] (Vero); above 50 mg/L in data set [2] (HeLa); above 50 mg/L in data set [2] (Vero); above 50 mg/L in data set [4] (HeLa); above 50 mg/L in data set [4] (Vero). In addition, the CC50 is above 50 mg/L in data set [3] and 100 mg/L (≈ 269 µM) in data set [5].

With `Nc1nc(N2CCN(CC(=O)Nc3cccnc3)CC2)c2nc(-c3ccc(F)cc3)[nH]c2n1` [Example 412, 2-(4-(2-amino-8-(4-fluorophenyl)-9H-purin-6-yl)piperazin-1-yl)-N-(pyridin-3-yl)acetamide], in data set [6], the “HCV-1a Replicon Selectivity Index” value is given as above 111 and the concentration giving a half-maximal response (EC50) was 0.4 µM. In data set [7], this compound showed a CC50 at 72 h above 44.4 µM.

For the compound `CN(C(=O)CN1CCN(c2nc(N)nc3[nH]c(-c4ccc(F)cc4)nc23)CC1)c1ccccc1` [Example 413, 2-(4-(2-amino-8-(4-fluorophenyl)-9H-purin-6-yl)piperazin-1-yl)-N-methyl-N-phenylacetamide], in data set [6], the “HCV-1a Replicon Selectivity Index” value stood at 0.5 and the 50% effective concentration (EC50) was above 44.4 µM. Besides, the CC50 at 72 h in data set [7] worked out at 20.3 µM.

`Nc1nc(N2CCN(c3ccc(Cl)cc3)CC2)c2nc(-c3ccc(F)cc3)[nH]c2n1` [Example 414, 6-(4-(4-chlorophenyl)piperazin-1-yl)-8-(4-fluorophenyl)-9H-purin-2-amine]: in data set [6], the “HCV-1a Replicon Selectivity Index” value is on record as 1.2 and the 50% effective concentration (EC50) was 7.3 µM. The compound further had a CC50 at 72 h in data set [7] of 8.7 µM.

For the compound `Nc1nc(N2CCCN(C(=O)COc3ccc(Cl)cc3)CC2)c2nc(-c3ccc(F)cc3)[nH]c2n1` [Example 421, 1-(4-(2-amino-8-(4-fluorophenyl)-9H-purin-6-yl)-1,4-diazepan-1-yl)-2-(4-chlorophenoxy)ethanone], in data set [6], the “HCV-1a Replicon Selectivity Index” value was determined as 1.9 and the EC50 was determined as 12.7 µM. In data set [7], this compound came in with a CC50 at 72 h of 23.8 µM.

Consider `Cc1cccc(NC(=O)N2CCCN(c3nc(N)nc4[nH]c(-c5ccc(F)cc5)nc34)CC2)c1` [Example 422, 4-(2-amino-8-(4-fluorophenyl)-9H-purin-6-yl)-N-m-tolyl-1,4-diazepane-1-carboxamide], for which, in data set [6], the “HCV-1a Replicon Selectivity Index” value was determined as 1.3 and the EC50 was determined as 26.1 µM. The CC50 at 72 h in data set [7] came to 35.1 µM.

In the case of `CSc1nc2c(N3CCN(C(=O)COc4ccc(Cl)cc4)CC3)nc(N)nc2[nH]1` [Example 424, 1-(4-(2-amino-8-(methylthio)-9H-purin-6-yl)piperazin-1-yl)-2-(4-chlorophenoxy)ethanone], in data set [6], the “HCV-1a Replicon Selectivity Index” value is reported as above 1.3 and the EC50 came to 34.8 µM. This compound also came in with a CC50 at 72 h in data set [7] above 44.4 µM.

As to `CCCSc1nc2c(N3CCN(C(=O)COc4ccc(Cl)cc4)CC3)nc(N)nc2[nH]1` [Example 425, 1-(4-(2-amino-8-(propylthio)-9H-purin-6-yl)piperazin-1-yl)-2-(4-chlorophenoxy)ethanone], in data set [6], the “HCV-1a Replicon Selectivity Index” value amounted to 19.7 and the concentration giving a half-maximal response (EC50) came to 1.2 µM. In data set [7], this compound had a CC50 at 72 h of 23.6 µM.

Regarding `Nc1nc(N2CCN(C(=O)COc3ccc(Cl)cc3)CC2)c2nc(SCCc3ccccc3)[nH]c2n1` [Example 427, 1-(4-(2-amino-8-(phenethylthio)-9H-purin-6-yl)piperazin-1-yl)-2-(4-chlorophenoxy)ethanone], in data set [6], the “HCV-1a Replicon Selectivity Index” value came out at 1.1 and the concentration giving a half-maximal response (EC50) was found to be 5.2 µM. Besides, the CC50 at 72 h in data set [7] amounted to 5.8 µM.

Consider `Cn1c(-c2ccc(F)cc2)nc2c(N3CCN(C(=O)COc4ccc(Cl)cc4)CC3)nc(N)nc21` [Example 430, 1-(4-(2-amino-8-(4-fluorophenyl)-9-methyl-9H-purin-6-yl)piperazin-1-yl)-2-(4-chlorophenoxy)ethanone], for which, in data set [6], the “HCV-1a Replicon Selectivity Index” value was 54.0 and the 50% effective concentration (EC50) is 0.3 µM. Besides, in data set [7], the CC50 at 72 h amounted to 15.1 µM.

Turning to `Nc1nc(N2CCN(C(=O)CCc3ccccc3)CC2)c2nc(-c3ccc(F)cc3)[nH]c2n1` [Example 438, 1-(4-(2-amino-8-(4-fluorophenyl)-9H-purin-6-yl)piperazin-1-yl)-3-phenylpropan-1-one], in data set [6], the “HCV-1a Replicon Selectivity Index” value was 0.6 and the EC50 was determined as 10.3 µM. Further, the CC50 at 72 h in data set [7] is 6.1 µM.
